Measured values from patent US12410163B2, “Compounds as GLP-IR agonists” (Terns Pharmaceuticals, Inc., priority 2022, dated 2025).

Experiments:
Rat pharmacokinetics [1] = assay type: in vivo; settings: male Sprague-Dawley rats, plasma, route not stated in table (IV or oral gavage 10 mL/kg of 0.3 or 0.6 mg/mL)
Rat pharmacokinetics [2] = assay type: in vivo; design: AUC: concentration or dose not given beside the values; settings: male Sprague-Dawley rats, plasma, route not given; for half-life: read-out: Rat T1/2 (converted)
Protocol: Intravenous dosing: Compounds were formulated at 0.5 mg/mL in a solution comprising 5% polyethylene glycol 400 and 95% (12% (w/v) sulfobutyl-β-cyclodextrin in water) (v/v). Formulated compounds were sterile filtered through a 0.22 micron filter before dosing. Compounds were administered to male, 7-11-week-old Sprague-Dawley rats by jugular vein cannula infusion over 30 minutes at a dose of 1 mg/kg. […]
Sample collection: Blood collections of about 0.2 mL per time point were performed from jugular vein or other suitable site of each animal, into pre-chilled commercial EDTA-K2 tubes and placed on wet ice until centrifugation. Blood samples were processed for plasma by centrifugation at approximately 4° C., 3,200 g for 10 min. Plasma was collected and transferred into pre-labeled 96 well plate or polypropylene tubes, quick frozen over dry ice and kept at −60° C. or lower until LC-MS/MS analysis.
Data analysis: Plasma concentration versus time data was plotted in graph and analyzed by non-compartmental approaches using the Phoenix WinNonlin 6.3 software program. Related PK parameters were calculated according to dosing route, e.g., CL, Vdss and C0 for intravenous administration, Cmax, Tmax or % F for extravascular administration, and T1/2, AUC(0-t), AUC(0-inf), MRT(0-t), MRT(0-inf) for all routes.

human GLP-1R receptor = molecular target: T1, human GLP-1R receptor (Homo sapiens, UniProt P43220); assay: GLP-1R low expression cell assay (cAMP TR-FRET, CHO-K1_hGLP-1Rlow_clone10); assay type: cell-based; settings: CHO-K1_hGLP-1Rlow_clone10 cells, percent activation relative to control GLP-1 peptide
T1 construct: expressed in transfected cells
How it was run: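 CHO-K1 cells stably expressing low surface levels of human GLP-1R were exposed to 10-point, 3-fold compound dilutions for 30 min at 25 °C, then cAMP was read by TR-FRET (Eu-cAMP/ULight-anti-cAMP, 15 min). EC50 came from Hill fits of percent activation relative to a GLP-1 control agonist, duplicate wells.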

T1 sequence (P43220 24-463): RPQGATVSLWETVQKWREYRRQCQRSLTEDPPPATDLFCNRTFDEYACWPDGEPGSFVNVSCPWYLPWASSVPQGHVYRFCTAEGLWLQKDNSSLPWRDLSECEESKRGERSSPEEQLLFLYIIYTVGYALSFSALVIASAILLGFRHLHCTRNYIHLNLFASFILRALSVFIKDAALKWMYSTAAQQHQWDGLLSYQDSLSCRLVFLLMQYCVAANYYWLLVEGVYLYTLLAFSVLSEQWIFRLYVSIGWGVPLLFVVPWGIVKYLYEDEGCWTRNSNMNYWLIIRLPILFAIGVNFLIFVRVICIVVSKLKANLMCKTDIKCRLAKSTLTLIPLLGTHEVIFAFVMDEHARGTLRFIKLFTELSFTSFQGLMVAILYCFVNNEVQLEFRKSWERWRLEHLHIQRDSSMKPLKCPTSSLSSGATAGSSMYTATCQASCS

Row | SMILES | Cmax (Rat pharmacokinetics [1]) [ng/mL] | AUC (Rat pharmacokinetics [2]) [ng·h/mL] | half-life (Rat pharmacokinetics [2]) [h] | EC50 (human GLP-1R receptor) [nM]
1 | N#Cc1ccc(COc2cccc([C@@H]3CCN(Cc4nc5ccc(C(=O)O)cc5n4Cc4cncs4)[C@@H]4C[C@@H]43)n2)c(F)c1 (single isomer, unassigned) [Compound 5, 2-((5-(6-((4-Cyano-2-fluorobenzyl)oxy)pyridin-2-yl)-2-azabicyclo[4.1.0]heptan-2-yl)methyl)-1-(thiazol-5-ylmethyl)-1H-benzo[d]imidazole-6-carboxylic Acid] | 282 ± 4.04 | 418 ± 49.6 | 1.31 | 5 to 50
2 | CC1(c2ccc(C#N)cc2F)Oc2cccc(C3CCN(Cc4nc5ccc(C(=O)O)cc5n4Cc4cncs4)CC3)c2O1 (stereo not shown) [Compound 18] | 89.5 ± 23.6 | 84.9 ± 32.2 | 0.89 | < 5
3 | N#Cc1ccc(COc2cccc([C@H]3CCN(Cc4nc5ccc(C(=O)O)cc5n4Cc4cncs4)[C@@H]4C[C@H]34)n2)c(F)c1 (single isomer, unassigned) [Compound 4, 2-((5-(6-((4-Cyano-2-fluorobenzyl)oxy)pyridin-2-yl)-2-azabicyclo[4.1.0]heptan-2-yl)methyl)-1-(thiazol-5-ylmethyl)-1H-benzo[d]imidazole-6-carboxylic Acid] | 70 ± 32 | 86.3 ± 27.2 | 0.92 | < 5
4 | N#Cc1ccc(COc2cccc([C@H]3CCN(Cc4nc5ccc(C(=O)O)cc5n4Cc4cncs4)[C@H]4C[C@@H]34)n2)c(F)c1 (single isomer, unassigned) [Compound 14, 2-((5-(6-((4-Cyano-2-fluorobenzyl)oxy)pyridin-2-yl)-2-azabicyclo[4.1.0]heptan-2-yl)methyl)-1-(thiazol-5-ylmethyl)-1H-benzo[d]imidazole-6-carboxylic Acid] | 59.3 ± 5.68 | 66.8 ± 7.06 | 0.645 | 5 to 50
5 | N#Cc1ccc(COc2cccc([C@@H]3CCN(Cc4nc5ccc(C(=O)O)cc5n4Cc4cncs4)[C@H]4C[C@@H]34)n2)c(F)c1 (single isomer, unassigned) [Compound 15, 2-((5-(6-((4-Cyano-2-fluorobenzyl)oxy)pyridin-2-yl)-2-azabicyclo[4.1.0]heptan-2-yl)methyl)-1-(thiazol-5-ylmethyl)-1H-benzo[d]imidazole-6-carboxylic Acid] | 77.4 ± 16.2 | 71.7 ± 16.1 | 0.597 | 5 to 50
6 | N#Cc1ccc(COc2cccc(N3CCN(Cc4nc5ccc(C(=O)O)cc5n4Cc4cncs4)[C@H]4C[C@H]43)n2)c(F)c1 (single isomer, unassigned) [Compound 2, 2-((5-(6-((4-Cyano-2-fluorobenzyl)oxy)pyridin-2-yl)-2,5-diazabicyclo[4.1.0]heptan-2-yl)methyl)-1-(thiazol-5-ylmethyl)-1H-benzo[d]imidazole-6-carboxylic Acid] | 44.1 ± 6.5 | 63.5 ± 11.1 | 2.41 | 50 to 100
7 | N#Cc1ccc(COc2cccc(N3CCN(Cc4nc5ccc(C(=O)O)cc5n4Cc4cncs4)[C@@H]4C[C@@H]43)n2)c(F)c1 (single isomer, unassigned) [Compound 1, 2-((5-(6-((4-cyano-2-fluorobenzyl)oxy)pyridin-2-yl)-2,5-diazabicyclo[4.1.0]heptan-2-yl)methyl)-1-(thiazol-5-ylmethyl)-1H-benzo[d]imidazole-6-carboxylic Acid] | 34.7 ± 13.7 | 71.8 ± 90.3 | 4.58 | < 5

Results, then the compound that gave them:

Row | Cmax (Rat pharmacokinetics [1]) [ng/mL] | AUC (Rat pharmacokinetics [2]) [ng·h/mL] | half-life (Rat pharmacokinetics [2]) [h] | EC50 (human GLP-1R receptor) [nM] | SMILES
8 | 15.5 ± 7.15 | 22.9 ± 30 | 0.578 | 5 to 50 | N#Cc1ccc(COc2ccnc(N3CCN(Cc4nc5ccc(C(=O)O)cc5n4Cc4cncs4)[C@@H]4C[C@@H]43)n2)c(F)c1 [Compound 20, 2-((5-(4-((4-Cyano-2-fluorobenzyl)oxy)pyrimidin-2-yl)-2,5-diazabicyclo[4.1.0]heptan-2-yl)methyl)-1-(thiazol-5-ylmethyl)-1H-benzo[d]imidazole-6-carboxylic Acid]
9 | 9.62 | 9.48 | – | < 5 | CCn1nncc1Cn1c(CN2CCN(c3cccc(OCc4ccc(C#N)cc4F)n3)[C@H]3C[C@H]32)nc2ccc(C(=O)O)cc21 [Compound 45, 2-((5-(6-((4-Cyano-2-fluorobenzyl)oxy)pyridin-2-yl)-2,5-diazabicyclo[4.1.0]heptan-2-yl)methyl)-1-((1-ethyl-1H-1,2,3-triazol-5-yl)methyl)-1H-benzo[d]imidazole-6-carboxylic Acid]
10 | 64.5 ± 17.8 | 118 ± 10 | 1.19 | < 5 | N#Cc1ccc(COc2cccc(N3CCN(Cc4nc5ccc(C(=O)O)cc5n4C[C@@H]4CCO4)[C@@H]4C[C@@H]43)n2)c(F)c1 (single isomer, unassigned) [Compound 43]
11 | 28.3 ± 6.42 | 44.2 ± 8.62 | 2.78 | < 5 | CC1(c2ccc(C#N)cc2F)Oc2cccc(N3CCN(Cc4nc5ccc(C(=O)O)cc5n4CC4(C#N)CC4)C4CC43)c2O1 (stereo not shown) [Compound 40, 2-((5-(2-(4-Cyano-2-fluorophenyl)-2-methylbenzo[d][1,3]dioxol-4-yl)-2,5-diazabicyclo[4.1.0]heptan-2-yl)methyl)-1-((1-cyanocyclopropyl)methyl)-1H-benzo[d]imidazole-6-carboxylic Acid]
